Source: patent publication US11672812B2, “Methods and compositions comprising tyrosine kinase inhibitor and triptolide for the treatment of cancer” (City of Hope, priority 2020, dated 2023)

Assays:
HCC827 cells = assay: Drug resistance assay (time to develop resistance, cell viability by cell counting); type: cell-based, human
[1] = system: EGFR-TKI resistant HCC827 lung cancer cells; assay: Tumor growth of Tagrisso-resistant HCC827 cells grafted in mice; type: in vivo
Procedure: (§1) HCC827 or AZD9291-resistant HCC827 cancer or PC9 NSCLC cells (5×10^6) were subcutaneously injected into NOD/SCID mice (2 months old, n=6-10 for each group). After tumor size reaches approximately 100 mm^3, the mice were administered AZD9291 individually or in combination with triptolide using ALZET osmotic pump, which was implanted under the skin of the mice for a specific time period. The tumor volume was monitored twice a week for 4-8 weeks. All protocols involving animals were approved by the Research Animal Care Committee of City of Hope, in compliance with the Public Health Service Policy of the United States.

PC9 tumor = PC9 tumor growth in grafted mice following Tagrisso resistance development; type: in vivo; conditions: for tumor volume relative to its volume prior to the treatment (100%): PC9-grafted mice after 4 weeks Tagrisso, Tagrisso 2x dosage (Group 1), combination (Group 3)
Procedure: as §1

HSP72 [2] = assay: HSP72 cellular expression; type: cell-based
From the text: Triptolide by itself is a potent anti-tumor agent and functions by activating tumor suppressor protein p53 and blocking tumor promotor NF-κB.

HSP72 [3] = assay: HSP72 protein level in Tagrisso-treated HCC827 cells; type: cell-based, human
From the text: The inventors sought to maintain high levels of HSP72 while sustaining cancer treatment with TKIs.

[4] = system: HCC827 cells grafted into mice; assay: Tumor growth in HCC827-grafted mice; type: in vivo
From the text: To model human EGFR mutated NSCLC, HCC827 cells were grafted into mice.
HCC827 or AZD9291-resistant HCC827 cancer or PC9 NSCLC cells (5×10^6) were subcutaneously injected into NOD/SCID mice (2 months old, n=6-10 for each group). […] The tumor volume was monitored twice a week for 4-8 weeks. All protocols involving animals were approved by the Research Animal Care Committee of City of Hope, in compliance with the Public Health Service Policy of the United States.

HCC827-grafted mice = assay: Survival rates of HCC827-grafted mice; type: in vivo; parameters: dose or concentration left out as unconfirmed; conditions: Tagrisso with or without co-administered Velcade (FIG. 3)
PC9 tumors = assay: Tumor growth in PC9-grafted mice (Velcade study); type: in vivo; conditions: same treatment setting as HCC827 study
Procedure: (§2) A separate experiment was completed using PC9-grafted mice in the same treatment setting as previously described.
as §1

[5] = Adverse effect observed in treated PC9-grafted mice; type: in vivo; conditions: Velcade treatment
From the text: as §2

[6] = HCC827-grafted mice, compared to untreated control (FIG. 2), Tagrisso at dose corresponding to recommended human dose, low dose of Velcade

CC(C)[C@]12O[C@H]1[C@@H]1O[C@]13[C@]1(O[C@H]1C[C@H]1C4=C(CC[C@@]13C)C(=O)OC4)[C@@H]2O [Triptolide]
time HCC827 cells maintained sensitivity to Tagrisso (HCC827 cells; Tagrisso in the presence of Triptolide, 70 day duration of the study): > 70 days
time HCC827 cells maintained sensitivity to Tarceva (resistance not observed) (HCC827 cells; Tarceva when also treated with Triptolide, 70 day duration of the study): > 70 days
sensitization of Tagrisso-resistant HCC827 to the EGFR-TKI ([1]; Tagrisso in the absence or presence of Triptolide (FIG. 5B)): sensitizes Tagrisso-resistant HCC827 cells to the EGFR-TKI
tumor volume relative to its volume prior to the treatment (100%) (PC9 tumor; Triptolide (Group 2)): 60%
duration of inhibitory effect on PC9 tumor growth (PC9 tumor; after 4 weeks Tagrisso pre-treatment, Tagrisso at 2x dosage (Group 1), Triptolide (Group 2)): at least 4 weeks
HSP72 cellular expression (HSP72 [2]): may activate HSP72 cellular expression

CC(C)C[C@H](NC(=O)[C@H](Cc1ccccc1)NC(=O)c1cnccn1)B(O)O [Velcade, Bortezomib]
HSP72 protein levels (HSP72 [3]): effectively maintains high levels of HSP72 protein
time HCC827 cells remained sensitive to Tagrisso (HCC827 cells; Tagrisso in the presence of Velcade, same concentration): > 60 days
tumor growth [4, 6]: moderately inhibited tumor growth
survival of the mice (HCC827-grafted mice): did not improve survival of the mice
PC9 tumor growth (PC9 tumors): little inhibitory effect on PC9 tumor growth
adverse effect [5]: skin inflammation after one month

C=CC(=O)Nc1cc(Nc2nccc(-c3cn(C)c4ccccc34)n2)c(OC)cc1N(C)CCN(C)C [Tagrisso, Osimertinib]
tumor growth [4, 6]: reduced tumor size and blocked tumor growth
tumor growth ([4]; non-resistant HCC827 cells (FIG. 5A)): tumor growth is inhibited
tumor growth ([1]; Tagrisso-resistant HCC827 grafted mice (FIG. 5A, 5B)): does not reduce tumor growth
tumor volume relative to its volume prior to the treatment (100%) (PC9 tumor; Triptolide (Group 2)): 190%
treatment time at which Tagrisso began to lose its inhibitory effect on the PC9 tumor (PC9 tumor; PC9-grafted mice, initial Tagrisso dosage): 4 weeks

C#Cc1cccc(Nc2ncnc3cc(OCCOC)c(OCCOC)cc23)c1 [Tarceva, Erlotinib]
time for HCC827 cells to develop resistance to Tarceva (HCC827 cells; Tarceva alone): about 30 days
